Some test systems named below: EKVX NSCLC; NCI-H522 lung; SW-620 colon; HT29 colon; PC-3 prostate; RXF 393 renal; ACHN renal; LOX IMVI melanoma; HL-60(TB) leukemia; RPMI-8226 leukemia; IGROV1 ovarian.
Holding throughout (test): NCI anticancer screen, dose series, 48 h

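The compound was tested at five concentrations on cells cultured in 96-well plates, with a 48-hour exposure period. At the TGI there is no net growth.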 Where only a bound is given, the exact number is not on record here.

`C(=C\c1cccc(/C=C/c2ccccn2)n1)/c1ccccn1`: the TGI in the assay with EKVX NSCLC was greater than 100 µM; in the assay on NCI-H522 lung, 28.8 µM; in the assay on SW-620 colon it was greater than 100 µM; in the assay on HT29 colon, greater than 100 µM; in the assay on PC-3 prostate, greater than 100 µM; in the assay on RXF 393 renal, greater than 100 µM. Moreover, the TGI in the assay with ACHN renal, in the assay on LOX IMVI melanoma, with HL-60(TB) leukemia, in the assay on RPMI-8226 leukemia and with IGROV1 ovarian was greater than 100 µM each time.
Take `CCOC(=O)C(=[N+]=[N-])C(=O)Nc1nn2nnnc2c2ccccc12`: the TGI in the assay with EKVX NSCLC, in the assay on NCI-H522 lung, with SW-620 colon, in the assay with HT29 colon, in the assay on PC-3 prostate and in the assay with RXF 393 renal was greater than 100 µM each time. Also, the TGI in the assay on ACHN renal, in the assay with LOX IMVI melanoma, with HL-60(TB) leukemia, in the assay on RPMI-8226 leukemia and in the assay with IGROV1 ovarian was greater than 100 µM throughout.
`CC(=O)O[C@@H]1C[C@@]23C[C@@]24CC[C@H](OC2OCC(O)C(O)C2O)C(C)(C)[C@@H]4CC=C3[C@]2(C)C[C@@H]3OC4(C[C@@H](C)[C@@H]3[C@@]12C)OC(O)[C@@]1(C)O[C@@H]41` (stereo partly drawn): the TGI in the assay with EKVX NSCLC is greater than 100 µM; with NCI-H522 lung, 89.4 µM; with SW-620 colon, greater than 100 µM; with HT29 colon, greater than 100 µM; in the assay on PC-3 prostate it was 61.1 µM; with RXF 393 renal it was 37.1 µM. Further, the TGI in the assay on ACHN renal is greater than 100 µM; in the assay with LOX IMVI melanoma, 57 µM; in the assay with HL-60(TB) leukemia it was 36.4 µM; in the assay with RPMI-8226 leukemia, 47.1 µM; in the assay on IGROV1 ovarian, greater than 100 µM.
In the case of `CN(C)/N=C/c1cn(C)c(=O)n(C)c1=O`, the TGI in the assay on EKVX NSCLC, with NCI-H522 lung, in the assay on SW-620 colon, in the assay on HT29 colon, in the assay with PC-3 prostate and with RXF 393 renal was greater than 100 µM in each case. Moreover, the TGI with ACHN renal, with LOX IMVI melanoma, in the assay on HL-60(TB) leukemia, with RPMI-8226 leukemia and in the assay on IGROV1 ovarian was greater than 100 µM throughout.
As for `CCOC(=O)c1c(N2CCCC2)ncn(-c2ccccc2)c1=S`, the TGI in the assay on EKVX NSCLC, with NCI-H522 lung, with SW-620 colon, in the assay with HT29 colon, with PC-3 prostate and in the assay with RXF 393 renal was greater than 100 µM throughout. Besides, the TGI in the assay on ACHN renal, with LOX IMVI melanoma, in the assay on HL-60(TB) leukemia, in the assay on RPMI-8226 leukemia and in the assay with IGROV1 ovarian was greater than 100 µM each time.
In the case of `CC(C)=CCC[C@@H](C)C1=C(Nc2ccccc2Cl)C(O)=C(C)C(=O)C1=O`, the TGI in the assay on EKVX NSCLC was 29.7 µM; in the assay on NCI-H522 lung, 12.2 µM; with SW-620 colon, greater than 56.4 µM; with HT29 colon it was 13.6 µM; in the assay with PC-3 prostate, greater than 100 µM; in the assay on RXF 393 renal, 32.7 µM. The TGI is 11.1 µM in the assay with ACHN renal; 98.4 µM in the assay with LOX IMVI melanoma; 2.94 µM with HL-60(TB) leukemia; greater than 28.7 µM with RPMI-8226 leukemia; greater than 39.1 µM in the assay with IGROV1 ovarian.
For `CCc1c(Cc2cccc3ccccc23)n2c(nc1=O)SCC2OCCO` (stereo not drawn), the TGI with EKVX NSCLC, in the assay on NCI-H522 lung, with SW-620 colon, with HT29 colon, with PC-3 prostate and with RXF 393 renal was greater than 100 µM in each case. Moreover, the TGI with ACHN renal is greater than 100 µM; in the assay on LOX IMVI melanoma, greater than 100 µM; in the assay on HL-60(TB) leukemia it was greater than 100 µM; with RPMI-8226 leukemia, 94.4 µM; with IGROV1 ovarian, greater than 100 µM.
Regarding `CCCCc1cc2c(C)cc(=O)oc2c(O)c1O`, the TGI with EKVX NSCLC was greater than 100 µM; in the assay with NCI-H522 lung it was 49 µM; in the assay on SW-620 colon, 62.2 µM; in the assay with HT29 colon it was 77 µM; in the assay on PC-3 prostate, 68.1 µM; in the assay on RXF 393 renal, 59.6 µM. Moreover, the TGI stood at 94 µM with ACHN renal; 61 µM in the assay on LOX IMVI melanoma; 38.4 µM with HL-60(TB) leukemia; 43.3 µM in the assay on RPMI-8226 leukemia; 51.7 µM with IGROV1 ovarian.
With `Clc1ccc(Cc2nc3ccccc3nc2-c2cccc(Br)c2)cc1`, the TGI in the assay with EKVX NSCLC amounted to 28.9 µM; in the assay with NCI-H522 lung it was 3.62 µM; with SW-620 colon it was 4.49 µM; with HT29 colon, 6.13 µM; in the assay on PC-3 prostate it was 4.88 µM; in the assay with RXF 393 renal, 6.26 µM. The TGI amounted to 3.44 µM in the assay on ACHN renal; 3.73 µM with LOX IMVI melanoma; 6.49 µM in the assay on HL-60(TB) leukemia; 3.81 µM in the assay with RPMI-8226 leukemia; 3.49 µM in the assay on IGROV1 ovarian.
For the compound `N/N=C1/C2CN3CCN(C2)CC1(c1ccc([N+](=O)[O-])cc1)C3`, the TGI in the assay with EKVX NSCLC, in the assay on NCI-H522 lung, in the assay with SW-620 colon, with HT29 colon, in the assay with PC-3 prostate and with RXF 393 renal was greater than 100 µM each time. For the same compound, the TGI with ACHN renal, in the assay on LOX IMVI melanoma, in the assay on HL-60(TB) leukemia, in the assay on RPMI-8226 leukemia and with IGROV1 ovarian was greater than 100 µM in each case.
For `CC[N+](C)(CC)CCC(O)(c1ccccc1)c1ccccc1`, the TGI in the assay with EKVX NSCLC, in the assay with NCI-H522 lung, in the assay on SW-620 colon, with HT29 colon, in the assay on PC-3 prostate and with RXF 393 renal was greater than 100 µM throughout. The TGI in the assay with ACHN renal, with LOX IMVI melanoma, with HL-60(TB) leukemia, in the assay on RPMI-8226 leukemia and in the assay on IGROV1 ovarian was greater than 100 µM throughout.
With `CCOC(=O)c1c(CN2CCNCC2)nc2ccccc2c1-c1ccccc1`, the TGI in the assay on EKVX NSCLC was determined as 29.3 µM; with NCI-H522 lung, 29 µM; in the assay on SW-620 colon, 34.9 µM; in the assay on HT29 colon it was 17.8 µM; in the assay with PC-3 prostate it was 27.3 µM; with RXF 393 renal, 13.8 µM. Also, the TGI in the assay with ACHN renal came to 30.4 µM; with LOX IMVI melanoma, 31.6 µM; in the assay with HL-60(TB) leukemia, 30.6 µM; in the assay with RPMI-8226 leukemia, 32.5 µM; in the assay with IGROV1 ovarian, 29.2 µM.
On to `CCOC(=O)C1(C(=O)OCC)[C@H](c2ccccc2)C2=NO[C@@H]3CCC[C@H]1[C@H]23`, for which the TGI with EKVX NSCLC, in the assay on NCI-H522 lung, in the assay on SW-620 colon, with HT29 colon, with PC-3 prostate and with RXF 393 renal was greater than 100 µM throughout. In addition, the TGI in the assay on ACHN renal, in the assay with LOX IMVI melanoma, in the assay on HL-60(TB) leukemia, in the assay on RPMI-8226 leukemia and in the assay on IGROV1 ovarian was greater than 100 µM in each case.
With `CCNc1ccc2c(c1)Cc1ccccc1-2`, the TGI in the assay on EKVX NSCLC, in the assay on NCI-H522 lung, in the assay with SW-620 colon, in the assay with HT29 colon, in the assay on PC-3 prostate and in the assay on RXF 393 renal was greater than 100 µM in each case. For the same compound, the TGI with ACHN renal, in the assay on LOX IMVI melanoma, in the assay with HL-60(TB) leukemia, in the assay on RPMI-8226 leukemia and in the assay on IGROV1 ovarian was greater than 100 µM in each case.
Consider `Cc1ccc(C(=O)N/N=C(\N=Nc2cccc(Cl)c2)c2ccc(N(CCC#N)CCC#N)cc2C)cc1`, for which the TGI in the assay with EKVX NSCLC, with NCI-H522 lung, with SW-620 colon, in the assay on HT29 colon, with PC-3 prostate and in the assay with RXF 393 renal was greater than 100 µM in each case. Also, the TGI with ACHN renal, in the assay with LOX IMVI melanoma, in the assay with HL-60(TB) leukemia, in the assay on RPMI-8226 leukemia and with IGROV1 ovarian was greater than 100 µM throughout.
Regarding `Cc1ccc(S(=O)(=O)NNC(=O)c2cc(C)ccc2NC(=O)C23CC4CC(CC(C4)C2)C3)cc1`, the TGI with EKVX NSCLC was greater than 100 µM; with NCI-H522 lung it was 76.3 µM; in the assay with SW-620 colon, greater than 100 µM; in the assay on HT29 colon it was greater than 100 µM; in the assay with PC-3 prostate, greater than 100 µM; in the assay with RXF 393 renal it was 78 µM. The TGI in the assay with ACHN renal is 44.1 µM; in the assay on LOX IMVI melanoma it was greater than 100 µM; in the assay on HL-60(TB) leukemia, greater than 100 µM; with RPMI-8226 leukemia it was greater than 100 µM; in the assay on IGROV1 ovarian it was 30.6 µM.
With `CN1CCN(c2c(Cl)cc(Cl)c3[nH]c4ccccc4c(=O)c23)CC1`, the TGI came out at 32.6 µM in the assay on EKVX NSCLC; 19.2 µM in the assay with NCI-H522 lung; 21.3 µM in the assay with SW-620 colon; 16.1 µM in the assay with HT29 colon; 23.3 µM in the assay with PC-3 prostate; 25.2 µM with RXF 393 renal. The TGI in the assay on ACHN renal is 17 µM; with LOX IMVI melanoma, greater than 42.6 µM; in the assay with HL-60(TB) leukemia it was 4.63 µM; with RPMI-8226 leukemia it was 56.8 µM; with IGROV1 ovarian, 20.3 µM.
`Cc1ccc(C2=NOC(=O)[C@@H]3CCCC[C@@H]23)cc1`: the TGI in the assay on EKVX NSCLC, with NCI-H522 lung, with SW-620 colon, in the assay on HT29 colon, in the assay on PC-3 prostate and with RXF 393 renal was greater than 100 µM each time. Further, the TGI with ACHN renal, with LOX IMVI melanoma, in the assay with HL-60(TB) leukemia, in the assay with RPMI-8226 leukemia and in the assay with IGROV1 ovarian was greater than 100 µM each time.

These data come from PubChem BioAssay (NCI).
